Data published in publication PMC12040169 (PLOS Biology, 2025).

assay: in vitro; conditions: human, hela cells, % viability

Structure (SMILES) | viability at 28.5 h, 10 µM [%]
O=[N+]([O-])c1ccc(CN2CCN(Cc3ccc4c(c3)OCO4)CC2)o1 [CBK074557] | 88.7
N#Cc1ccccc1NC(=O)C(CC(=O)O)NCc1ccccc1 (stereo not drawn) [CBK286907] | 83.6
COc1ccc([C@@]23CC[C@@H](NC(=O)Nc4cccc(S(=O)(=O)C(F)(F)F)c4)C[C@@H]2N(C)CC3)cc1OC [CBK051275T] | 99
Cn1c(=O)oc2ccccc2c1=O [CBK015658] | 100
CCN(CC)C(=O)C1CCCN(C(=O)NCCc2c[nH]c3ccccc23)C1 (stereo not drawn) [CBK156140] | 99.8
CC(C)n1nnnc1-c1ccccc1NS(=O)(=O)C1CC1 [CBK305509] | 97.7
c1ccc(-c2c(-c3ccccc3)n(Cc3ccco3)c3ncn4nc(-c5ccncc5)nc4c23)cc1 [CBK265298] | 89.6
Cc1c(C(=O)N(C)Cc2nc3ccccc3s2)nnn1C1CCNCC1 [CBK306501C] | 85.9
Cn1nnc2cc(NCC3(CNC(=O)OC(C)(C)C)CC3)ccc21 [CBK304777] | 89.1
CC(C)(O)C1CCCN(C(=O)c2cc(COc3cccc(F)c3)[nH]n2)C1 (stereo not drawn) [CBK306653] | 99.9
COC(=O)c1ccc(NC(=O)C2Cc3ccccc3CN2S(=O)(=O)c2cccs2)cc1 (stereo not drawn) [CBK265693] | 92.7
CCc1ccc(N(CC(=O)NCc2ccccn2)S(C)(=O)=O)cc1 [CBK265322] | 98.8
COC1CCCC(C(=O)N2CCCC2c2nc3ccccc3[nH]2)C1 (stereo not drawn) [CBK284007] | 101
O=C(O)c1cccc(NC(=S)NC(=O)c2cccnc2)c1 [CBK265739] | 94.5
O=c1/c(=C/c2ccncc2)sc2n1CN(c1cccc(F)c1)CN=2 [CBK264340] | 99.2
CC(C)(C)OC(=O)N1CCN(C(=O)c2cc(-c3cccnc3)on2)CC1 [CBK305648] | 88.7
C=CCNC(=O)[C@@H]1C=CCN1S(=O)(=O)c1ccc(Cl)cc1 [CBK284318] | 90.4
CC(C)C(=O)NCCn1nc(-c2ccccc2F)cc1CN(C)C [CBK281693] | 91.4
Cn1cc(CC(=O)Nc2ccc(N3CCNCC3)nc2)c2ccccc21 [CBK028275T] | 72.1
CCOCC1CCN(C(=O)c2ncsc2Nc2ccccc2)C1 (stereo not drawn) [CBK304204] | 117
Cc1nc2c(c(=O)[nH]1)CC[C@@H]1CN(C(=O)CCc3ccccc3)C[C@H]21 [CBK284414] | 95.9
COc1ccccc1Cc1cccc(C2CCCN2C(=O)Cc2c[nH]c3ccccc23)n1 (stereo not drawn) [CBK286139] | 95.2

Structure (SMILES) | viability at 28.5 h, 10 µM [%]
O=C(O)C1CC1C(=O)N1CCC2(CC1)OCCc1c2[nH]c2ccccc12 (stereo not drawn) [CBK047167] | 89.2
O=C(CN1CCC(c2ccccc2F)CC1)N1CCOCC1 [CBK283548] | 89.3
Cc1ccncc1C(=O)N1CCc2ccccc21 [CBK200400] | 109
Cc1ncc2c(n1)[C@@H]1CN(C(=O)Cc3cccs3)C[C@@H]1CC2 [CBK284491] | 89.3
O=C(c1ccccc1)c1cc(Cl)ccc1-n1ccnc1 [CBK012383] | 105
CN1C(c2ccccc2)=NO[C@]1(C)c1ccccc1 [CBK027170] | 90
Cc1[nH]c(=O)[nH]c(=O)c1CCC(=O)OCc1nccn1Cc1ccccc1 [CBK297939] | 82.1
O=C(O)CN1CCN(c2ncnc3sc4c(c23)CCCC4)CC1 [CBK286836] | 99.5
CC1(C)COC(=O)N1C1CCN(C(=O)CNC(=O)c2cccs2)CC1 [CBK044501] | 93.1
OCCn1c(S)nnc1-c1ccccc1 [CBK100025] | 85.4
COC(=O)CCn1c(-c2cccnc2C)cc2cccnc21 [CBK282593] | 105
Cn1cc(C(=O)NCC(c2ccc(F)cc2)N2CCCC2)ccc1=O (stereo not drawn) [CBK282843] | 87.4
COc1ccc(CC(=O)N2CCCC2c2cccc(Cc3ccc(F)cc3)n2)cc1 (stereo not drawn) [CBK286233] | 89.1
CCOC(=O)C1=C(C)NC(=O)NC1c1ccc(-c2cccc([N+](=O)[O-])c2)o1 (stereo not drawn) [CBK072102] | 109
O=C(CN1C(=O)c2ccccc2C1=O)Nc1cccc(-c2cnc3ccccc3n2)c1 [CBK268614] | 115
Cc1nc(C(=O)N2CCn3nc(C(O)c4ccccc4)cc3C2)c(C)s1 (stereo not drawn) [CBK307474] | 92.5
COc1ccc(OC)c2sc(NC(=O)c3ccc(Br)s3)nc12 [CBK287400] | 93.7
Cn1c(C(=O)NCCN2CCOCC2)cc2oc(-c3ccccc3)nc2c1=O [CBK056726T] | 87.8
Cc1cccc(C(=O)Nc2nc3ccc(S(C)(=O)=O)cc3s2)c1 [CBK287323] | 89.8
Cc1[nH]c(=O)[nH]c(=O)c1CCC(=O)N(C)CC(=O)Nc1cccc(F)c1 [CBK305703] | 99.6
CS(=O)(=O)Nc1cc2cccnc2c(-c2ccccc2)n1 [CBK061928] | 95.5
N#CC1=C(SCC(=O)Nc2cccc3ccccc23)NC(=O)CC1c1ccco1 (stereo not drawn) [CBK265793] | 101

Structure (SMILES) | viability at 28.5 h, 10 µM [%]
CCC(CC)C(=O)N1CCCC(c2cc3cccnc3[nH]2)C1 (stereo not drawn) [CBK284926] | 100
COc1cc(Cl)c(C)cc1NC(=O)c1ncn(-c2ccccc2)n1 [CBK269456] | 101
Cc1ccc(S(=O)(=O)NCC(=O)Nc2cnc(-c3cccc(C)c3)c(-c3ccc(N)cc3)n2)cc1 [CBK037600] | 83.5
O=C(O)c1ccc(NS(=O)(=O)c2cc(Br)c(Cl)s2)cc1 [CBK034049] | 95.8
CN(C)c1ccc(-c2cc(N3CCN(S(=O)(=O)c4ccc(Cl)cc4)CC3)ncn2)cc1 [CBK091158] | 93.5
CC(C)C(=O)N1CC2(CCN(CCS(=O)(=O)c3ccccc3)CC2)c2ccccc21 [CBK126726] | 95.4
COCOc1ccc(-c2nccnc2OC)cc1 [CBK106914] | 111
CCN1CCCC1CN(Cc1ccccn1)Cc1ccco1 (stereo not drawn) [CBK283161] | 91.3
CCc1nc2c(OCCOc3ccccc3)cccn2c1N(C)C(=O)COc1ccccc1 [CBK147355] | 95.2
CCOC(=O)c1c(NC(=O)Cn2nc(C(F)(F)F)c(Cl)c2C)sc2c1CCCC2 [CBK263019] | 98.5
CCCS(=O)(=O)N1CCN(C(=O)c2cccnc2)CC1 [CBK264239] | 93.8
O=C1CCc2cc(S(=O)(=O)NC(c3ccccc3)c3ccccc3)ccc2N1 [CBK286367] | 93.4
CCc1[nH]c(=O)c(C(=O)N2CCc3[nH]c4c(C)cccc4c3C2)cc1C [CBK281586] | 97.6
COc1ccc(-c2ccc(OC)cc2C(=O)Nc2ccc3c(c2)N(C)C(=O)CO3)cc1 [CBK285650] | 92
CS(=O)(=O)c1ccc2nc(NC(=O)Cc3ccccc3)sc2c1 [CBK287339] | 89.8
Cc1ccc2c(c1)cc(C(=O)N1CCCC(C)(C(=O)NC3CCCC3)C1)n2C (stereo not drawn) [CBK286076] | 81.3
CC12CCCN1CCCN2C(=O)c1c[nH]c2ccccc12 (stereo not drawn) [CBK169228] | 87.2
C=CCn1c(SCC(=O)Nc2ccc(C(=O)OC)cc2)nnc1-c1ccc(Br)cc1 [CBK101797] | 92.8
COc1ccc([C@@]23CC[C@@H](NC(=O)Nc4ccc(F)c(F)c4)C[C@@H]2N(C)CC3)cc1C#N [CBK067952T] | 107
COc1ccc(CN2Cc3nc[nH]c3C[C@H]2C(=O)N2CCC(Cc3ccccc3)CC2)cc1 [CBK288980] | 110
O=C1Nc2ccc(S(=O)(=O)NCC(O)c3ccc([N+](=O)[O-])cc3)c3cccc1c23 (stereo not drawn) [CBK266745] | 88.1
COc1ccc(C(=O)N2CCN(Cc3ccccc3)CC2)c(OC)n1 [CBK200169] | 99.2

Structure (SMILES) | viability at 28.5 h, 10 µM [%]
CN1CCCCCC1c1nc(-c2ccccc2)nn1CCCO (stereo not drawn) [CBK307653] | 95.9
N=C(N)SCc1ncccc1O [CBK278318C] | 102
CC(C)NC(=O)Nc1ccc(C(=O)N(CC#N)C2CC2)cc1 [CBK306120] | 90.5
Cc1cc(CN2CCC(O)(c3cccnc3F)CC2)oc1C [CBK282124] | 83
Cc1ccc(-n2c(=O)[nH]c3c(C(N)=O)nc(CC(C)C)nc32)cc1 [CBK287294] | 102
O=C(O)c1ccccc1-c1ccc(/C=C2\S/C(=N\c3ccccc3)N(c3ccccc3)C2=O)o1 [CBK262566] | 101
CN1CCC(COC(=O)Nc2cccnc2)CC1 [CBK138232] | 108
O=C(NCCc1c[nH]c2ccccc12)c1ccc(-c2ccco2)nc1N1CCN(C(=O)c2ccco2)CC1 [CBK076217] | 95.4
O=C(O)C1CCN(c2ncnc3scc(-c4ccccc4)c23)CC1 [CBK076784] | 95.6
CCc1nn(CC(=O)N2CCCCC2)c(=O)c2cc3oc(C)cc3n12 [CBK283575] | 104
COc1cccc(CN2CCCC[C@H]3CN(C(C)=O)C[C@H]32)c1 [CBK285510] | 107
Cc1nc(NS(=O)(=O)c2ccc(Oc3ccccc3)cc2)sc1C(=O)O [CBK045566] | 107
Cn1ccnc1CN(CCCn1ccnc1)Cc1ccccc1F [CBK283022] | 102
COC(=O)CCc1ccc(S(=O)(=O)N2CCCN(Cc3ccc(C)o3)CC2)cc1 [CBK063081] | 99.8
c1cnc(N2CCN(Cc3ccc4c(c3)OCO4)CC2)c(OC2CCCCC2)n1 [CBK082833T] | 95.6
C(=N\N=C\c1ccccn1)/c1ccccn1 [CBK015627] | 89
Oc1cc(C(F)(F)F)nc2[nH]nc(-c3cccs3)c12 [CBK008498] | 106
Cc1nn(-c2ncccn2)c2c1C(C(=O)c1ccccc1)CC(=O)N2 (stereo not drawn) [CBK287890] | 93.2
O=C1CNC(=O)C2(C/C=C/C[C@H]3COCC[C@@H]3N1)CCN(CC(=O)N1CCCCC1)CC2 [CBK292137] | 111
CC1CC(=O)c2cnc(Nc3ccccc3)nc2C1 (stereo not drawn) [CBK287884] | 92.4
O=C(/C=C/c1ccccc1)Nc1cccc(C(=O)O)c1 [CBK287193] | 94
